System: not given
Experiment: not given
Conditions: not given

melting point [°C] | SMILES
117 to 119 | COc1ccc(COc2cccc(C=C(C=O)C(C=O)=Cc3cccc(OCc4ccc(OC)cc4)c3)c2)cc1 [Compound 37, 2,3-bis-(3-(4-methoxybenzyloxy)-benzylidene)succinaldehyde]
208 to 209 | O=CC(=Cc1ccc(OCc2ccc(Cl)cc2)cc1)C(C=O)=Cc1ccc(OCc2ccc(Cl)cc2)cc1 [Compound 38, 2,3-bis-(4-(4-chlorobenzyloxy)-benzylidene)succinaldehyde]
218 to 220 | COc1ccc(COc2ccc(C=C(C=O)C(C=O)=Cc3ccc(OCc4ccc(OC)cc4)cc3)cc2)cc1 [Compound 39, 2,3-bis-(4-(4-methoxybenzyloxy)-benzylidene)succinaldehyde]

Second part, the molecule before the results:

SMILES | melting point [°C]
O=CC(=Cc1ccc(OC(=O)c2ccccc2F)cc1)C(C=O)=Cc1ccc(OC(=O)c2ccccc2F)cc1 [Compound 33, 2,3-bis-(4-(2-fluorobenzoyloxy)benzylidene)succinaldehyde] | 197 to 199
O=CC(=Cc1ccc(OC(=O)c2ccc(Br)cc2)cc1)C(C=O)=Cc1ccc(OC(=O)c2ccc(Br)cc2)cc1 [Compound 34, 2,3-bis-(4-(4-bromobenzoyloxy)benzylidene)succinaldehyde] | 223 to 225
CN1CCN(c2ccccc2/C=C(C=O)/C(C=O)=C/c2ccccc2N2CCN(C)CC2)CC1 [Compound 35, 2,3-bis-(2-(N-methylpiperazine)benzylidene)succinaldehyde] | 218 to 220
O=CC(=Cc1cccc(OCc2ccc(Cl)cc2)c1)C(C=O)=Cc1cccc(OCc2ccc(Cl)cc2)c1 [Compound 36, 2,3-bis-(3-(4-chlorobenzyloxy)-benzylidene)succinaldehyde] | 193 to 194

System: SW620 colon cancer cell
Experiment: Cell cycle distribution (Experimental Example 2), SW620
Assay type: cell-based, human
Conditions: SW620, 1 μM, 48 hours
Method: (§1) SW620 or HCT116 as colon cancer cell was inoculated in 100 mm plate to the amount of 2×10^6 cells. Then, cinnamaldehyde derivative of the present invention (compound 16 or compound 35) was added to the plate in the concentration of 1 μM. Thereafter, the colon cancer cell was incubated for 48 hours. Trypsin was added to the plate, to separate the colon cancer cell from the plate. And 5 ml of PBS (phosphate buffer solution) was added to the plate, to prepare the cell mixture. The cell mixture was centrifuged at 1,500 rpm for 5 min for two times, to remove trypsin from the mixture. The residue was washed with PBS for two times, thus the resulting supernatant was discarded. 1 ml of PBS and 3˜5 ml of cool ethanol(70%) was added to the resulting residue. The cell was fixed by being positioned at −20° C. for 12 hours. The fixed cell was centrifuged at 1,500 rpm for 5 min and washed with the cool PBS for two times to remove residual ethanol. RNase(10 μg/ml) was added to the fixed cell, to remove RNA. And DNA of the fixed cell was dyed with PI(propidium iodide, 50 μg/ml). After the fixed cell was positioned at 37° C. for 30 min, cell cycles of 20,000 cells were measured by using Becton-Dickinson FACS caliber (San Jose, Calif., USA).
(§2) For control group, the same procedure was accomplished except that DMSO was used in place of the cinnamaldehyde derivative.

SMILES | Amount of cell (%) G0-G1 [%] | Amount of cell (%) G2-M [%] | Amount of cell (%) S [%]
CN1CCN(c2ccccc2/C=C(C=O)/C(C=O)=C/c2ccccc2N2CCN(C)CC2)CC1 [Compound 35, 2,3-bis-(2-(N-methylpiperazine)benzylidene)succinaldehyde] | 8.74 | 78.53 | 12.73

System: SW620 colon cancer cell
Experiment: Growth inhibition of SW620 colon cancer cell (GI50)
Assay type: cell-based, human
Conditions: Homo sapiens, SW-620; concentration at which growth of SW620 colon cancer cell was inhibited to the 50%
Method: (§3) Colon cancer cell of human SW620(ATCC) or HCT116 (ATCC) was transferred to T25 flask(culture 7.5 ml) by RPMI1640 (Gibco/BR) medium or DMEM medium (Gibco/BR) containing 10% FBS (fetal bovine serum), respectively. Thereafter the cell was incubated for 12 hours at 37° C. in incubator. After the cell was incubated for 12 hours, 7.5 μl of DMSO was added to a culture used as control group, for the final concentration to be 0.1%. In order to use in experiment, samples of various concentrations were prepared by dissolving the cinnamaldehyde derivatives of the present invention in DMSO. 7.5 μl of the prepared samples was added to a culture used as experimental group. Cell of control or experimental group was incubated for 48 hours.
(§4) HCT116 GI50 (μM) and SW620 GI50 (μM) mean to be the concentrations at which growth of HCT116 and SW620 colon cancer cell was inhibited to the 50%, respectively.

GI50 [µM] | SMILES
5.1 | COc1ccc(COc2cccc(C=C(C=O)C(C=O)=Cc3cccc(OCc4ccc(OC)cc4)c3)c2)cc1 [Compound 37, 2,3-bis-(3-(4-methoxybenzyloxy)-benzylidene)succinaldehyde]
2.2 | O=CC(=Cc1ccc(OCc2ccc(Cl)cc2)cc1)C(C=O)=Cc1ccc(OCc2ccc(Cl)cc2)cc1 [Compound 38, 2,3-bis-(4-(4-chlorobenzyloxy)-benzylidene)succinaldehyde]
6.8 | COc1ccc(COc2ccc(C=C(C=O)C(C=O)=Cc3ccc(OCc4ccc(OC)cc4)cc3)cc2)cc1 [Compound 39, 2,3-bis-(4-(4-methoxybenzyloxy)-benzylidene)succinaldehyde]

Further lines, the molecule ahead of its results:

SMILES | GI50 [µM]
O=CC(=Cc1ccc(OC(=O)c2ccccc2F)cc1)C(C=O)=Cc1ccc(OC(=O)c2ccccc2F)cc1 [Compound 33, 2,3-bis-(4-(2-fluorobenzoyloxy)benzylidene)succinaldehyde] | 5.57
O=CC(=Cc1ccc(OC(=O)c2ccc(Br)cc2)cc1)C(C=O)=Cc1ccc(OC(=O)c2ccc(Br)cc2)cc1 [Compound 34, 2,3-bis-(4-(4-bromobenzoyloxy)benzylidene)succinaldehyde] | 16.7
CN1CCN(c2ccccc2/C=C(C=O)/C(C=O)=C/c2ccccc2N2CCN(C)CC2)CC1 [Compound 35, 2,3-bis-(2-(N-methylpiperazine)benzylidene)succinaldehyde] | 0.72
O=CC(=Cc1cccc(OCc2ccc(Cl)cc2)c1)C(C=O)=Cc1cccc(OCc2ccc(Cl)cc2)c1 [Compound 36, 2,3-bis-(3-(4-chlorobenzyloxy)-benzylidene)succinaldehyde] | 6.3

System: HCT116 colon cancer cell
Experiment: Cell cycle distribution (Experimental Example 2), HCT116
Assay type: cell-based, human
Conditions: HCT116, 1 μM, 48 hours
Method: as §1, §2

SMILES | Amount of cell (%) G0-G1 [%] | Amount of cell (%) G2-M [%] | Amount of cell (%) S [%]
CN1CCN(c2ccccc2/C=C(C=O)/C(C=O)=C/c2ccccc2N2CCN(C)CC2)CC1 [Compound 35, 2,3-bis-(2-(N-methylpiperazine)benzylidene)succinaldehyde] | 15.52 | 52.11 | 32.37

Same assay, conditions: HCT116 and SW620, 1 μM, summary of table 3

SMILES | Holding of cancer cell in stage G2/M (in words)
CN1CCN(c2ccccc2/C=C(C=O)/C(C=O)=C/c2ccccc2N2CCN(C)CC2)CC1 [Compound 35, 2,3-bis-(2-(N-methylpiperazine)benzylidene)succinaldehyde] | held a cancer cell in the stage G2/M

System: SW620 colon cancer cell
Experiment: Cell cycle analysis (Experimental Example 1), SW620
Assay type: cell-based, human
Conditions: SW620, 1 μM, 48 hours, percentage of cells in G2/M
Method: as §3
(§5) For cell cycle analysis, incubated cell was removed from medium. Thereafter the incubated cell was separated from the flask by trypsin. Thus the cell was centrifuged at 300 g for 5 min. The cell was washed with phosphate buffer solution (PBS) to remove the residue medium from the cell. 3 ml of ethanol (70%) was added to the cell. The cell was fixed by being positioned at −20° C. for 12 hours. The fixed cell was centrifuged at 300 g for 3 min and washed with the cold PBS for two times to remove residual ethanol. The cell solution prepared by adding 500 μl of PBS to the cell was well mixed to produce the homogeneous state. 100 μg/ml RNase A 50 μl was added to the cell solution, thereafter the resulting cell solution was positioned at 37° C. for 30 min. The chromosomal DNA was stained by further adding 1 mg/ml propidium iodide (soluble in PBS) thereto.
(§6) Distribution of cell cycle of 20,000 stained cells were measured by using Becton-Dickinson FACS caliber (San Jose, Calif., USA).

SMILES | G2/M at 1 μM(%) SW620 [%]
O=CC(=Cc1ccc(OC(=O)c2ccccc2F)cc1)C(C=O)=Cc1ccc(OC(=O)c2ccccc2F)cc1 [Compound 33, 2,3-bis-(4-(2-fluorobenzoyloxy)benzylidene)succinaldehyde] | 71
O=CC(=Cc1ccc(OC(=O)c2ccc(Br)cc2)cc1)C(C=O)=Cc1ccc(OC(=O)c2ccc(Br)cc2)cc1 [Compound 34, 2,3-bis-(4-(4-bromobenzoyloxy)benzylidene)succinaldehyde] | 62
CN1CCN(c2ccccc2/C=C(C=O)/C(C=O)=C/c2ccccc2N2CCN(C)CC2)CC1 [Compound 35, 2,3-bis-(2-(N-methylpiperazine)benzylidene)succinaldehyde] | 79
O=CC(=Cc1cccc(OCc2ccc(Cl)cc2)c1)C(C=O)=Cc1cccc(OCc2ccc(Cl)cc2)c1 [Compound 36, 2,3-bis-(3-(4-chlorobenzyloxy)-benzylidene)succinaldehyde] | 42
COc1ccc(COc2cccc(C=C(C=O)C(C=O)=Cc3cccc(OCc4ccc(OC)cc4)c3)c2)cc1 [Compound 37, 2,3-bis-(3-(4-methoxybenzyloxy)-benzylidene)succinaldehyde] | 46
O=CC(=Cc1ccc(OCc2ccc(Cl)cc2)cc1)C(C=O)=Cc1ccc(OCc2ccc(Cl)cc2)cc1 [Compound 38, 2,3-bis-(4-(4-chlorobenzyloxy)-benzylidene)succinaldehyde] | 53
COc1ccc(COc2ccc(C=C(C=O)C(C=O)=Cc3ccc(OCc4ccc(OC)cc4)cc3)cc2)cc1 [Compound 39, 2,3-bis-(4-(4-methoxybenzyloxy)-benzylidene)succinaldehyde] | 48

System: HCT116 colon cancer cell
Experiment: Growth inhibition of HCT116 colon cancer cell (GI50)
Assay type: cell-based, human
Conditions: Homo sapiens, HCT-116; concentration at which growth of HCT116 colon cancer cell was inhibited to the 50%
Method: as §3, §4

GI50 [µM] | SMILES
3.4 | COc1ccc(COc2cccc(C=C(C=O)C(C=O)=Cc3cccc(OCc4ccc(OC)cc4)c3)c2)cc1 [Compound 37, 2,3-bis-(3-(4-methoxybenzyloxy)-benzylidene)succinaldehyde]
3.8 | O=CC(=Cc1ccc(OCc2ccc(Cl)cc2)cc1)C(C=O)=Cc1ccc(OCc2ccc(Cl)cc2)cc1 [Compound 38, 2,3-bis-(4-(4-chlorobenzyloxy)-benzylidene)succinaldehyde]
3.7 | COc1ccc(COc2ccc(C=C(C=O)C(C=O)=Cc3ccc(OCc4ccc(OC)cc4)cc3)cc2)cc1 [Compound 39, 2,3-bis-(4-(4-methoxybenzyloxy)-benzylidene)succinaldehyde]

More lines, now with the values behind:

SMILES | GI50 [µM]
O=CC(=Cc1ccc(OC(=O)c2ccccc2F)cc1)C(C=O)=Cc1ccc(OC(=O)c2ccccc2F)cc1 [Compound 33, 2,3-bis-(4-(2-fluorobenzoyloxy)benzylidene)succinaldehyde] | 7.43
O=CC(=Cc1ccc(OC(=O)c2ccc(Br)cc2)cc1)C(C=O)=Cc1ccc(OC(=O)c2ccc(Br)cc2)cc1 [Compound 34, 2,3-bis-(4-(4-bromobenzoyloxy)benzylidene)succinaldehyde] | 30.4
CN1CCN(c2ccccc2/C=C(C=O)/C(C=O)=C/c2ccccc2N2CCN(C)CC2)CC1 [Compound 35, 2,3-bis-(2-(N-methylpiperazine)benzylidene)succinaldehyde] | 5.23
O=CC(=Cc1cccc(OCc2ccc(Cl)cc2)c1)C(C=O)=Cc1cccc(OCc2ccc(Cl)cc2)c1 [Compound 36, 2,3-bis-(3-(4-chlorobenzyloxy)-benzylidene)succinaldehyde] | 7.5

System: HCT116 colon cancer cell
Experiment: Cell cycle analysis (Experimental Example 1), HCT116
Assay type: cell-based, human
Conditions: HCT116, 1 μM, 48 hours, percentage of cells in G2/M
Method: as §3, §5, §6

SMILES | G2/M at 1 μM(%) HCT116 [%]
O=CC(=Cc1ccc(OC(=O)c2ccccc2F)cc1)C(C=O)=Cc1ccc(OC(=O)c2ccccc2F)cc1 [Compound 33, 2,3-bis-(4-(2-fluorobenzoyloxy)benzylidene)succinaldehyde] | 72
O=CC(=Cc1ccc(OC(=O)c2ccc(Br)cc2)cc1)C(C=O)=Cc1ccc(OC(=O)c2ccc(Br)cc2)cc1 [Compound 34, 2,3-bis-(4-(4-bromobenzoyloxy)benzylidene)succinaldehyde] | 60
CN1CCN(c2ccccc2/C=C(C=O)/C(C=O)=C/c2ccccc2N2CCN(C)CC2)CC1 [Compound 35, 2,3-bis-(2-(N-methylpiperazine)benzylidene)succinaldehyde] | 52
O=CC(=Cc1cccc(OCc2ccc(Cl)cc2)c1)C(C=O)=Cc1cccc(OCc2ccc(Cl)cc2)c1 [Compound 36, 2,3-bis-(3-(4-chlorobenzyloxy)-benzylidene)succinaldehyde] | 41
COc1ccc(COc2cccc(C=C(C=O)C(C=O)=Cc3cccc(OCc4ccc(OC)cc4)c3)c2)cc1 [Compound 37, 2,3-bis-(3-(4-methoxybenzyloxy)-benzylidene)succinaldehyde] | 35
O=CC(=Cc1ccc(OCc2ccc(Cl)cc2)cc1)C(C=O)=Cc1ccc(OCc2ccc(Cl)cc2)cc1 [Compound 38, 2,3-bis-(4-(4-chlorobenzyloxy)-benzylidene)succinaldehyde] | 44
COc1ccc(COc2ccc(C=C(C=O)C(C=O)=Cc3ccc(OCc4ccc(OC)cc4)cc3)cc2)cc1 [Compound 39, 2,3-bis-(4-(4-methoxybenzyloxy)-benzylidene)succinaldehyde] | 38

Reference: patent US6949682B2, “Cinnamaldehyde derivatives inhibiting growth of tumor cell and regulating cell cycle, preparations and pharmaceutical compositions thereof” (Korea Research Institute of Bioscience and Biotechnology, priority 2003, dated 2005)
